# In US20250134809A1, “A PHYTOACTIVE ENCAPSULATED FORMULATION FOR NEURODEGENERATIVE DISEASES” (Gidaa Life Sciences Pvt. Ltd., priority 2022, published 2025):
# Assays:
# Assay type in all cases: in vivo, rat
# [1] = test system: Alzheimer's Disease model (Aluminium Chloride induced), Wistar male rats; test: Morris water maze in AlCl3-induced Alzheimer's Disease model; details: G3 (Donepezil orally)
# Description: (§1) This compound PHY-001 (Named as MAG XXI in Animal study by CEFTE) has also been subjected to in-vivo animal study at the animal study facility attached to SRMC (Sri Ramachandra Medical College) Hospital, Chennai. In this study, the therapeutic efficacy of this compound was evaluated against Alzheimer's Disease model, by inducing Alzheimer's like pathology by intra peritoneal administration of Aluminium Chloride (Established animal model for studying Alzheimer's disease and efficacy evaluation of a therapeutic intervention).
# (§2) Based on the pilot study observations, a main study was conducted. Totally 30 Wistar male rats were used for the study. Animals were formed into five groups, Group 1-rats served as a control group, animals in group 2 to 5 were injected with AlCl3 intra-peritoneally once daily for four weeks.
# The results of number of times crossed centre at Morris water maze and escape latency which is the […] the animal could find the platform and escape (in 3 minutes), are presented in table 1 & table 2.
# [2] = test system: Alzheimer's Disease model (Aluminium Chloride induced), Wistar male rats; test: Passive avoidance test in AlCl3-induced Alzheimer's Disease model; details: G3 (Donepezil orally)
# Description: as §1, §2
# Significant alteration in dark compartment movement at all weeks is noticed in G2 group when compared to G1 which elucidate the learning memory defect.
# [3] = test system: Alzheimer's Disease model (Aluminium Chloride induced), Wistar male rats; test: Elevated plus maze in AlCl3-induced Alzheimer's Disease model; details: G3 (Donepezil orally); for Elevated plus maze: No. of DF (defacation) / Elevated plus maze: No. of UP (urine pool): Latency period 3 minutes
# Description: as §1, §2
smiles,measurement,setting,value
COc1cc2c(cc1OC)C(=O)C(CC1CCN(Cc3ccccc3)CC1)C2 (stereo not shown) [Donepezil],times crossed centre and escape latency when compared to G2,[1],significant elevation
same,Escape latency (in 3 minutes): No. of times find platform and escape,[1]; WK 1,3.33
same,Morris water maze: No. of times crossed center in 1 minute (mean values),[1]; WK 1,2.5
same,Escape latency (in 3 minutes): No. of times find platform and escape,[1]; WK 2,2.67
same,Morris water maze: No. of times crossed center in 1 minute (mean values),[1]; WK 2,2.67
same,Escape latency (in 3 minutes): No. of times find platform and escape,[1]; WK 3,3.33
same,Morris water maze: No. of times crossed center in 1 minute (mean values),[1]; WK 3,2.83
same,Escape latency (in 3 minutes): No. of times find platform and escape,[1]; WK 4,3.5
same,Morris water maze: No. of times crossed center in 1 minute (mean values),[1]; WK 4,3.33
same,dark compartment movement when compared to G2,[2],significant reversal
same,Passive avoidance: latency to enter dark chamber (mean values),[2]; WK 1,31.83 s
same,Passive avoidance: latency to enter dark chamber (mean values),[2]; WK 2,42 s
same,Passive avoidance: latency to enter dark chamber (mean values),[2]; WK 3,45.33 s
same,Passive avoidance: latency to enter dark chamber (mean values),[2]; WK 4,47 s
same,Elevated plus maze: No. of DF (defacation),[3]; WK 1,1
same,Elevated plus maze: No. of UP (urine pool),[3]; WK 1,0.5
same,Elevated plus maze: No. of DF (defacation),[3]; WK2,0.5
same,Elevated plus maze: No. of UP (urine pool),[3]; WK2,0.17
same,Elevated plus maze: No. of DF (defacation),[3]; WK 3,1.17
same,Elevated plus maze: No. of UP (urine pool),[3]; WK 3,1.33
same,Elevated plus maze: No. of DF (defacation),[3]; WK 4,0.83
same,Elevated plus maze: No. of UP (urine pool),[3]; WK 4,1.17
same,Elevated plus maze: No. of entries in Closed arm,[3]; WK 1,3.5
same,Elevated plus maze: No. of entries in Open arm,[3]; WK 1,0.33
same,Elevated plus maze: No. of entries in Closed arm,[3]; WK 2,4.17
same,Elevated plus maze: No. of entries in Open arm,[3]; WK 2,0.33
same,Elevated plus maze: No. of entries in Closed arm,[3]; WK 3,2.5
same,Elevated plus maze: No. of entries in Open arm,[3]; WK 3,0
same,Elevated plus maze: No. of entries in Closed arm,[3]; WK 4,2.67
same,Elevated plus maze: No. of entries in Open arm,[3]; WK 4,1.67
same,number of entries in open arm and closed arm when compared to G2,[3]; week 4,significant elevation
